Patent publication US8455421B2, “Compositions and methods for the removal of chewing gum residues from substrates” (Expelliere Int Ltd, priority 2008, dated 2013)

Tested on: laccase from Trametes versicolor (LTV)
Assay: Compatibility of laccase with ionic liquids (oxidation of catechol to 1,2-benzoquinone)
Format: biochemical
Details: laccase 25 mg/L, sodium phosphate-citrate buffer 25 mM, pH 4.5, 22° C., 405 nm
Description: An important consideration in preparing ionic liquids comprising enzymes for use in the methods of the present invention is the activity of the enzyme in the presence of the ionic liquid. The compatibility of enzymes and ionic liquids can be easily determined by the skilled person by standard laboratory techniques. One suitable technique uses high throughput screening of ionic liquids and enzymes using multiple well plates. A standard enzyme-catalysed transformation may be used to analyse the activity of a particular enzyme in the presence of various ionic liquids at various concentrations. One suitable reaction is the oxidation of catechol to 1,2-benzoquinone. The progress of this reaction can be monitored visually by the dark colour of 1,2-benzoquinone and spectrally, for instance using UV-Vis spectrometry. This transformation can be represented by the following reaction scheme, in which laccase is exemplified:
Compatibility of enzymes with ionic liquid compositions was determined by high throughput screening on multiple well plates of various enzymes against various concentrations of ionic liquids in water. The oxidation of catechol to 1,2-benzoquinone was measured in aqueous sodium phosphate-citrate buffer solutions (25 mM) containing laccase (25 mgL^−1) and an ionic liquid, premixed at pH 6.0 for laccase from Agaricus bisporus (LAB) and at pH 4.5 for laccase from Trametes versicolor (LTV). The pH was verified by diluting the final reaction mixture in deionised water and measuring the pH using a pH meter. The rate of 1,2-benzoquinone formation was measured using an Agilent spectrophotometer at 405 nm and 22° C. using an extinction coefficient of 760 M^−1 cm^−1. The activity was measured over a range of ionic liquid concentrations from 0 to 99.4%, since the laccases were not soluble in the pure ionic liquids, but could be dissolved when the ionic liquids were mixed with 0.6% of buffer solution containing the enzyme.

Concentration of ionic liquid in water that inactivates Laccase (LTV) [%] | Compound
70 | CCCC[N+](C)(C)CC.CCOS(=O)(=O)[O-] [[N4,2,1,1]^+[EtOSO3]^−]
90 | CCCCC(CC)COC(=O)CC(C(=O)OCC(CC)CCCC)S(=O)(=O)[O-].CCCCn1cc[n+](C)c1 (stereo not drawn) [[bmim][docusate], 1-methyl-3-butylimidazolium docusate]
90 | CCCCC(CC)COC(=O)CC(C(=O)OCC(CC)CCCC)S(=O)(=O)[O-].CCCC[N+]1(C)CCCC1 (stereo not drawn) [[bmpyr]^+[docusate]^−]
90 | CCCCC(CC)COC(=O)CC(C(=O)OCC(CC)CCCC)S(=O)(=O)[O-].CCn1cc[n+](C)c1 (stereo not drawn) [[emim][docusate]]

Second part, the compound before the results:

Compound | Concentration of ionic liquid in water that inactivates Laccase (LTV) [%]
CCOS(=O)(=O)[O-].C[N+](C)(C)CCCO [[N1,1,1,3OH]^+[EtOSO3]^−] | 30
CCOS(=O)(=O)[O-].CC[N+](C)(C)CCO [[N2,1,1,2OH]^+[EtOSO3]^−] | 30
CCCCCCCC[N+](C)(C)CCCC.O=[N+]([O-])[O-] [[N8,4,1,1]^+[NO3]^−] | 90
CC(O)C(=O)[O-].CCCCn1cc[n+](C)c1 [[bmim]^+[CH3CH(OH)CO2]^−] | 90
CCOS(=O)(=O)[O-].CCn1cc[n+](C)c1 [[emim]^+[EtOSO3]^−] | 30
